Results: patent US9107879B1, “Methods of increasing the cytotoxicity of chemotherapeutic agents with multisubstrate inhibitors of histone, protein-lys, polyamine acetylation, and polyamine metabolism” (Vanderbilt University, priority 2010, dated 2015)

Assays:
[1] = test system: normal GT41F human skin fibroblast cells; assay: [3H]-thymidine incorporation DNA synthesis assay; format: cell-based; settings: 1a 50 μM; camptothecin 5 nM 18 hours
From the text: Cells were either labeled immediately before treatment (starting DNA synthesis rate), or subjected to the indicated treatments and then pulsed on successive days until day 4. DNA synthesis is represented as the percent of starting DNA synthesis rate.
The present inventors used a 96-well viability assays as described in Saadatmandi et al (Cancer Gene Therapy (2002) 9:930-9) to examine the effect of the spermidine-CoA inhibitor disclosed previously on DNA synthesis in normal GT41F human skin fibroblast cells, as well as its combined effect with camptothecin. GT41F cells were plated in 96-well plates at 3000 cells per well. […] Following the 6-hour labeling, cells were harvested and incorporation of [^3H]-thymidine was determined by scintillation counting.

[2] = test system: DU145 prostate cancer cells; format: cell-based; settings: camptothecin 5 nM; 2a 10 μM
Method: (§1) Cells were plated in 96-well plates at 2000 cells per well and treated with the indicated doses of spd-3a. Cell viability was measured by the MTS assay 3 days later.

DLD-1 colon cancer cells = assay: 96-well MTS viability assay; format: cell-based; settings: 3 days
Method: as §1
DLD-1 cells or H358 cells were plated in 96-well plates at 2000 cells per well and treated with the indicated doses of (A) spm-3 or (B) spm-2. (C) Cell viability was measured by the MTS assay 3 days later. Similar experiment using GT41 fibroblasts with spm2 or spm 3. Each assay point represents an average of duplicates.

[3] = 5 mM, approximately 10 mg/kg, twice per week for 3 weeks
Method: They injected a second set of 4 mice with 100 μl of spd-3a (5 mM, approximately 10 mg/kg, or about 0.25 mM initial blood concentration), twice per week for 3 weeks.

CC[C@@]1(O)C(=O)OCc2c1cc1n(c2=O)Cc2cc3ccccc3nc2-1 [camptothecin]
effect on incorporation of [3H]-thymidine, single agent [1]: virtually no effect | effect on cell viability, single agent [2]: minimal effects

CC(=O)NCCSCC(=O)NCCCNCCCCNCCCN [spm-3]
suppression of cell growth and viability, single agent (DLD-1 colon cancer cells): effective as single agents

CC(=O)NCCSCC(=O)NCCCNCCCCN [3a]
body weight [3]: did not lose weight | signs of toxicity ([3]; 4 mice): no signs of distress or illness
